Experimental data published in article PMC8689140 (Frontiers in Pharmacology, 2021).
pIC50: −log10 of the molar value.

Assays:
[1] = Metabolite identification in dog plasma after oral dose; format: in vivo; details: pooled dog plasma after single oral dose of (+)-13e at 3 μmol/kg
Description: (§1) Male beagle dogs were randomly divided into four groups. […] The dogs were fasted for 12 h before treatment and 4 h after treatment, but they were granted free access to water. Blood was collected from the vein before administration and 0.083 (only for injection groups), 0.25, 0.5, 1, 2, 3, 4, 6, 8, 12 and 24 h, and placed it in heparinized tubes, and centrifuged it at 8,000 rpm for 10 min at 4°C to separate the plasma, which we stored at −20 °C until analysis. The plasma samples were pretreated by protein precipitation with acetonitrile and quantitated by the validated LC-MS/MS (Shimadzu Exion-Triple Quad 4500) method.
Then, four volumes of acetonitrile (containing 0.1% formic acid) were added into the pooled plasma samples to precipitate the proteins. After vortex-mixing and centrifugation, the supernatants were dried under a nitrogen stream. Then, the residues were resuspended in 100 μl of acetonitrile/water (1:1, v/v) with 0.1% formic acid. After centrifugation, the supernatants were analyzed by UPLC–UV-HRMS for metabolite identification.
The analysis was performed on Acquity UPLC system coupled with a diode array detector (Waters Corporation, United States) and Q Exactive™ Orbitrap HRMS (Thermo Electron Corporation, United States). […] The mobile phase was composed water containing 0.1% formic acid (A) and acetonitrile containing 0.1% formic acid (B). The flow rate was 0.40 ml/min. The elution conditions were the following linear gradient for metabolite identify in HLMs: 0–1 min: 95% A, 1–2 min: 80% A, 2–5 min: 80% A, 5–8 min: 70% A, 8–12 min: 30% A, 12–15 min: 5% A, 15–16 min: 95% A, and 16–18 min: 95% A. The elution conditions were the following for metabolite identify in dog plasma: 0–1 min: 95% A, 1–30 min: 70% A, 30–32 min: 30% A, 32–33 min: 5% A, 33–35 min: 95% A, and 35–40 min: 95% A.
HRMS were operated at positive ion mode using a heating electrospray ionization source (HESI). The optimized operating parameters were set as follows: sheath gas (nitrogen) flow rate of 35 psi, aux gas (nitrogen) flow rate of 10 psi, HESI and capillary temperature of 350°C, and spray voltage of 3.5 kV. The metabolites were detected by full MS/dd-MS^2 analysis from m/z 100 to m/z 1,000. The resolution of the first-class scan and second-class scan was 70 000 and 17 500, respectively. The collision energy for collision induced dissociation (NCE) was set to 20, 40 and 60 eV. The loop count was set to five and the dynamic exclusion duration to 10 s. […] Thermo Compound Discover software was used to identify expected and unknown metabolites, and we finally proposed (+)-13e metabolic pathways based on the deduced metabolites and relevant drug biotransformation knowledge.

[2] = set-up: method as in Skor et al., 2017; Stahl, 2018; details: Figure 1A ref Skor et al., 2017, Stahl, 2018, cited from earlier work; for Plasma Leval (DTBZ): share of HTBZ isomers after deutetrabenazine; for Plasma Leval (TBZ): share of HTBZ isomers after tetrabenazine
VMAT2 [3] = test system: VMAT2; set-up: method as in Skor et al., 2017; Stahl, 2018; details: Figure 1A ref Skor et al., 2017; Stahl, 2018; cited from earlier work
[4] = Metabolite identification in human liver microsomes; format: in vitro ADME
Description: (§2) Human, rat and dog liver microsomes were carefully thawed on ice prior to the experiment and diluted to 1 mg/ml in100 mM sodium phosphate buffer (pH 7.4) containing 10 mM magnesium chloride. […] After 3 min of preincubation at 37°C, the reactions were initiated by adding 20 µL of NADPH (20 mM) and then incubated at 37°C in a shaking water bath for 60 min. All samples were prepared in duplicates. The reactions were terminated by adding 600 µl of ice-cold acetonitrile and stored at −20°C until analysis. Control samples without NADPH and 0-time point samples were included. As a positive control, testosterone (10 µM) which was metabolized to produce the hydroxylation metabolite was used as a substrate to confirm the activity of the incubation system. Next, the samples were centrifuged at 13,000 rpm for 10 min, the supernatant was separated and evaporated to dryness under a nitrogen stream. The residue was resuspended in 100 μl of acetonitrile, after centrifugation, the supernatants were analyzed by UPLC–UV-HRMS.
(§3) The analysis was performed on Acquity UPLC system coupled with a diode array detector (Waters Corporation, United States) and Q Exactive™ Orbitrap HRMS (Thermo Electron Corporation, United States). […]
(§4) HRMS were operated at positive ion mode using a heating electrospray ionization source (HESI). […] The metabolites were detected by full MS/dd-MS^2 analysis from m/z 100 to m/z 1,000. […]

[5] = Metabolite identification in dog liver microsomes; format: in vitro ADME
Description: as §2, §3, §4

[6] = Metabolite identification in rat liver microsomes; format: in vitro ADME; details: NADPH, 60 min
Description: as §2, §3, §4

[7] = Metabolite identification in liver microsomes from humans, dogs and rats (stated across species); format: in vitro ADME, human, dog, rat; details: range or bound across the three species
Description: as §2, §3, §4

VMAT2 [8] = test system: VMAT2; set-up: method as in Yang et al., 2021; details: previous study ref Yang et al., 2021; read-out: affinity for VMAT2 IC50; cited from earlier work
[9] = set-up: method as in Yang et al., 2021; details: SD rats, oral administration at an equimolar dose, previous study ref Yang et al., 2021; cited from earlier work
[10] = test system: locomotor activity of rats; assay: Dose-dependent effects on locomotor activity in rats; format: in vivo, rat; details: SD rats, single oral gavage 5.2 μmol/kg, 0.5-[…] after dosing
Description: Before administration, animals were transported to the test room and allowed to acclimate for at least 1 h. Immediately after drug administration, rats were placed into activity chambers to assess their basal locomotor activity using the TopScan monitoring system. The total travel distance was recorded from 0.5 to 1.5 h after administration in intervals of 10 min.

[11] = PK in dogs after single oral or intravenous dose; format: in vivo, dog; details: dog
Description: as §1
The system consisted of an Exion UHPLC system (Shimadzu, Japan) and a Triple Quad 4500 mass spectrometer (AB Sciex, United States) with an electrospray ionization source. Multiple reaction monitoring in the positive ionization mode was applied to measure analytes. Chromatographic separation was performed on a Acquity BEH C18 column (50 × 2.1 mm i. d., 1.7 μm, Waters, United States). The mobile phase was composed of 0.1% FA in water (A) and 0.1% FA in acetonitrile (B), and the flow rate was 0.4 ml/min. The elution conditions were the following linear gradient: 0–0.4 min: 90% A, 0.4–0.6 min: 60% A, 0.6–1.2 min: 10% A, 1.2–2.2 min: 10% A, 2.2–2.3 min: 90% A, 2.3–3.0 min: 90% A. The optimized parameters were as follows: the spray voltage 5.5 kV, source temperature 550 °C, pressure of source gas 1 and gas 2: 55psi, pressure of curtain gas: 30psi, and the DP, EP and CE voltage was 30,6 and 40 eV, respectively.

rat VMAT2 = biological target: T1, rat VMAT2 (Rattus norvegicus, UniProt Q01827); assay: [3H]DA uptake assay in rat striatal synaptosomes; format: biochemical; details: [3H]DA uptake, rat striatal synaptosomes
T1 construct: in vitro [^3H]DA uptake assay in rat striatal synaptosomes; from tissue; host or cells: rat striatal synaptosomes / vesicular suspension
Description: [^3H]DA (dihydroxyphenylethyethylamine, 3,4-[ring-2,5,6-^3H]; specific activity, 28.0 Ci/mmol) was purchased from Perkin Elmer. […] After drying, the filter plate was sealed with unifilter-96 back sealing tape and added 50 μl of microscint-20 (Perkin Elmer), then sealed the top of the filter plate with TopSeal-A. The radioactivity was measured by a TopCount scintillation counter. GraphPad Prism 5.0 was used to analyze data.

CYP2D6 = test system: T2, CYP2D6; assay: P450 phenotyping, chemical inhibitors in HLMs, CYP2D6; format: in vitro ADME, human; details: CYP2D6 probe substrate, 5 µM, specific inhibitor
T2 construct: tissue Corning Co., Ltd (Shanghai, China); host or cells: human liver microsomes
Description: (§5) According to the result of metabolite identification, three metabolites were selected as the targets for metabolic phenotyping. Seven CYP isozymes (CYP1A2, CYP2B6, CYP2C8, CYP2C9, CYP2C19, CYP2D6, and CYP3A4) were investigated using two kinds of methods: chemical inhibitors in human liver microsomes (HLMs) method (Experiment 1) and rhCYP isozymes method (Experiment 2).
(§6) Experiment 1: HLMs were thawed on ice and diluted in100 mM sodium phosphate buffer (pH 7.4) containing 3 mM magnesium chloride. […] After 10 min of preincubation at 37°C, the reactions were initiated by adding 20 µL of NADPH (10 mM) and then incubated at 37 °C in a shaking water bath for 30 min. The samples were prepared in triplicates. The reactions were terminated by adding 600 µL of ice-cold acetonitrile and stored at −20°C until analysis. Control samples without NADPH and 0-time point samples were included. As positive controls, the probe substrates of each P450 isozyme under the same conditions were tested, and specific inhibitors was added. Next, the samples were centrifuged at 13,000 rpm for 10 min, the supernatants were determined by LC–MS/MS.

rhCYP CYP2D6 = test system: T3, rhCYP CYP2D6; assay: P450 phenotyping, rhCYP isozymes, CYP2D6; format: in vitro ADME, human; details: rhCYP2D6 probe substrate, 1 µM
T3 construct: purchased Corning Co., Ltd (Shanghai, China)
Excerpt: as §5
(§7) Experiment 2: Each rhCYP isozyme was thawed and diluted as above method. As positive controls, the probe substrates of each P450 isozyme were tested under the same conditions. […] Vx ([…]) is the production rate of metabolites for each rhCYP isozyme.

CYP3A4 = test system: T4, CYP3A4; assay: P450 phenotyping, chemical inhibitors in HLMs, CYP3A4; format: in vitro ADME, human; details: CYP3A4 probe substrate, 2 µM, specific inhibitor
T4 construct: tissue Corning Co., Ltd (Shanghai, China); host or cells: human liver microsomes
Description: as §5, §6

rhCYP CYP3A4 = test system: T5, rhCYP CYP3A4; assay: P450 phenotyping, rhCYP isozymes, CYP3A4; format: in vitro ADME, human; details: rhCYP3A4 probe substrate, 0.4 µM
T5 construct: purchased Corning Co., Ltd (Shanghai, China)
Excerpt: as §5, §7

[12] = no peak in UV, abundance by mass spectrometry

T1 sequence (Q01827 whole entry): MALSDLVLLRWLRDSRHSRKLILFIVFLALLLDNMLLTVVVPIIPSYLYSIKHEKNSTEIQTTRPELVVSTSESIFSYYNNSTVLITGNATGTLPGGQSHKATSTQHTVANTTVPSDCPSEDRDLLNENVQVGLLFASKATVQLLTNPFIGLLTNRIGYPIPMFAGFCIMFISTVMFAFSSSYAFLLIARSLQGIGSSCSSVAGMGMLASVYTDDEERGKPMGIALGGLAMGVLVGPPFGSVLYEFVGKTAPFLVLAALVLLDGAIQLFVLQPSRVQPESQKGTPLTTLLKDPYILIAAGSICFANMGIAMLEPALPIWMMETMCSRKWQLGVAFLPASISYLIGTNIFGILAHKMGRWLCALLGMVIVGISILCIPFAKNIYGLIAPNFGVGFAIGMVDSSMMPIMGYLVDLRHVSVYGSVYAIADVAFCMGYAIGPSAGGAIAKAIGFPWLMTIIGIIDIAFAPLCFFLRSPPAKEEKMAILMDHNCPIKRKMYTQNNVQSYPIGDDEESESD

CC(C)C[C@@H]1CN2CCc3cc(OCC(F)(F)F)c(OC4OC(C(=O)O)C(O)C(O)C4O)cc3[C@H]2C[C@H]1O (stereo partly shown) [M549]
Relative abundance UV area % in dog plasma [1]: 7.47%

COc1cc2c(cc1OC)[C@@H]1C[C@@H](O)[C@@H](CC(C)C)CN1CC2 [[-]-β-HTBZ]
Plasma Leval (DTBZ) [2]: 6.2%
Plasma Leval (TBZ) [2]: 5.4%
VMAT2 affinity (VMAT2 [3]): Low

COc1cc2c(cc1OCC(F)(F)F)CCN1CC(CC(C)(C)O)C(O)CC21 (stereo not shown) [M403-2]
Relative abundance UV area % in dog plasma [1]: 9.69%
Relative abundance, UV area % Human ([4]; NADPH, 60 min, UV area): 12.11%
Relative abundance, UV area % Dog ([5]; NADPH, 60 min, UV area): 10.01%
Relative abundance, UV area % Rat [6]: 8.78%

CC(C)CC1CN2CCc3cc(OCC(F)(F)F)c(O)cc3C2CC1O (stereo not shown) [M373]
Relative abundance Human (*detected by mass spectrometry) [4, 12]: 0.69^* %
relative abundance in liver microsomes from humans, dogs, and rats [7]: less than 3.2%
Relative abundance Dog (*detected by mass spectrometry) [5, 12]: 0.46^* %
Relative abundance, UV area % Rat [6]: 2.6%

COc1cc2c(cc1OCC(F)(F)F)CCN1CC(CC(C)C)C(O)CC21 (racemic) [13e, 3-isobutyl-10-methoxy-9-(2,2,2-trifluoroethoxy)-1,3,4,6,7,11b-hexahydro-2H-pyrido [2,1-a]isoquinolin-2-ol]
pIC50 (VMAT2 [8]): 8.29
concentration in the brain higher than that of HTBZ [9]: 2 fold

COc1cc2c(cc1OC)[C@H]1C[C@@H](O)[C@H](CC(C)C)CN1CC2 [HTBZ, (+)-α-dihydrotetrabenazine]
Plasma Leval (DTBZ) [2]: 1.7%
Plasma Leval (TBZ) [2]: 1.8%
VMAT2 affinity (VMAT2 [3]): High

COc1cc2c(cc1OCC(F)(F)F)CCN1C[C@@H](CC(C)(C)OC3OC(C(=O)O)C(O)C(O)C3O)[C@H](O)C[C@H]21 (stereo partly shown) [M579-1]
Relative abundance UV area % in dog plasma [1]: 3.43%

COc1cc2c(cc1OC)[C@H]1C[C@@H](OC(=O)[C@@H](N)C(C)C)[C@H](CC(C)C)CN1CC2 [VBZ, Valbenazine ditosylate, reference compound]
reduction rate (RR) of locomotion [10]: 97.9%
V, V/F ([11]; single intravenous dose 0.6 μmol/kg): 2.8 ± 0.5 L/kg
clearance ([11]; single intravenous dose 0.6 μmol/kg, read-out: Cl, Cl/F (converted)): 6 mL/min/kg
V, V/F ([11]; single oral dose 3 μmol/kg): 3.5 ± 0.8 L/kg
bioavailability ([11]; male, beagle, plasma, dogs, oral 3 μmol/kg vs intravenous 0.6 μmol/kg, read-out: absolute oral bioavailability): 74.1%
CL/F ([11]; male, beagle, plasma, 3 umol/kg, single oral dose 3 μmol/kg): 8 mL/min/kg

COc1cc2c(cc1OC)C1CC(=O)C(CC(C)C)CN1CC2 (stereo not shown) [TBZ, tetrabenazine, reference compound]
IC90 (rat VMAT2): 96.9 nM

CC(C)(O)C[C@@H]1CN2CCc3cc(OCC(F)(F)F)c(OC4OC(C(=O)O)C(O)C(O)C4O)cc3[C@H]2C[C@H]1O (stereo partly shown) [M565]
Relative abundance UV area % in dog plasma [1]: 10.2%

COc1cc2c(cc1OCC(F)(F)F)CCN1CC(CC(C)C)C(OC3OC(C(=O)O)C(O)C(O)C3O)CC21 (stereo not shown) [M563]
Relative abundance UV area % in dog plasma [1]: 9.92%

COc1ccc2c(c1)[C@]13CCCC[C@@H]1[C@H](C2)N(C)CC3 [Dextromethorphan]
%Inhibation in HLM (CYP2D6): 90.7%
CL int in rhCYP (rhCYP CYP2D6): 13.1 µL/min/pmol

COc1cc2c(cc1OC)[C@H]1C[C@H](O)[C@H](CC(C)C)CN1CC2 [[+]-β-HTBZ]
Plasma Leval (DTBZ) [2]: 43.8%
Plasma Leval (TBZ) [2]: 37.2%
VMAT2 affinity (VMAT2 [3]): High

Cc1ncc2n1-c1ccc(Cl)cc1C(c1ccccc1F)=NC2 [Midazolam]
%Inhibation in HLM (CYP3A4): 84.7%
CL int in rhCYP (rhCYP CYP3A4): 9.13 µL/min/pmol

COc1cc2c(cc1OC)[C@@H]1C[C@H](O)[C@@H](CC(C)C)CN1CC2 [[-]-α-HTBZ]
Plasma Leval (DTBZ) [2]: 48.3%
Plasma Leval (TBZ) [2]: 55.6%
VMAT2 affinity (VMAT2 [3]): Low
